Experimental data reported in ChEMBL document CHEMBL1201862, “PubChem BioAssay data set” (2004).
Values joined by “and” are separate entries in the source; they are usually repeats but may differ in a detail not shown here. Equal values may be shown once. Active and inactive are the calls of the source.

How the values were obtained:
[1] = biological target: FAD-linked sulfhydryl oxidase ALR (Homo sapiens, UniProt P55789); test: inhibitors of human ALR sulfhydryl oxidase, dose response, biochemical, H2O2 detection, luminescence, cherry-pick (AID 493248)
Chain of FAD-linked sulfhydryl oxidase ALR (P55789 whole entry): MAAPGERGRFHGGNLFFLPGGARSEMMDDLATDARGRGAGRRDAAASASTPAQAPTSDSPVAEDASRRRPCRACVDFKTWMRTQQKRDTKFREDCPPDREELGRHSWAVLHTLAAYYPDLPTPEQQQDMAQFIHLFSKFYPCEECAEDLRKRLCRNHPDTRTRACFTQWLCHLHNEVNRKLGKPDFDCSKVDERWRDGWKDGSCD

[2] = Luminescence Cell-Based Dose Confirmation HTS to Identify Activators of 5'UTR Stem-Loop Driven Alpha-Synuclein mRNA Translation in H4 Neuroglioblastoma Cells. [Related pubchem assays: 1829 (Project Summary), 1814 (Primary HTS)]; type: functional
[3] = Luminescence Cell-Based Dose Response HTS to Identify Activators of Luciferase Translation or Activity in H4 […] Cells. [Related pubchem assays: 1829 (Project Summary), 1814 (Primary HTS)]; type: functional
H4 = test: Luminescence Cell-Based Dose Response HTS to Identify Activators of 5'UTR Stem-Loop Driven Prion Protein mRNA Translation in H4 Neuroglioblastoma Cells. [Related pubchem assays: 1829 (Project Summary), 1814 (Primary HTS)]; type: functional; settings: Homo sapiens
[4] = Luminescence Cell-Based Dose Retest to Confirm Inhibitors of Cancer Stem Cells. [Related pubchem assays (depositor defined):AID2717, AID2721]; type: functional, Homo sapiens; settings: Homo sapiens
Cytochrome P450 2C9 = Cytochrome P450 2C9 (Homo sapiens, UniProt P11712)
Chain of Cytochrome P450 2C9 (P11712 whole entry): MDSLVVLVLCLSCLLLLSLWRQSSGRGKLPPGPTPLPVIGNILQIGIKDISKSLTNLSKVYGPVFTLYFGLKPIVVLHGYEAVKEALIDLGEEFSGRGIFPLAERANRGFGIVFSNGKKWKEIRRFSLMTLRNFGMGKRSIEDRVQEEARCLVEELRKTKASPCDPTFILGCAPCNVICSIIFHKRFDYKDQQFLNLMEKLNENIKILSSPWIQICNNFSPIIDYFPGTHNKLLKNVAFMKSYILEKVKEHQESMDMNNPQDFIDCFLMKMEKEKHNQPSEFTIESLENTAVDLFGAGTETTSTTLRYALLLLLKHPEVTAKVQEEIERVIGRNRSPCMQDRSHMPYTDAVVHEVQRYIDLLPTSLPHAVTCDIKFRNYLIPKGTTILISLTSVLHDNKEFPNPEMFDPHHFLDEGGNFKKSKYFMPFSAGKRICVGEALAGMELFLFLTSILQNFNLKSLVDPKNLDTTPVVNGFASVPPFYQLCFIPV

Cytochrome P450 2D6 = Cytochrome P450 2D6 (Homo sapiens, UniProt P10635);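 further: CYP2D6 member of a cytochrome P450 panel assay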
Chain of Cytochrome P450 2D6 (P10635 whole entry): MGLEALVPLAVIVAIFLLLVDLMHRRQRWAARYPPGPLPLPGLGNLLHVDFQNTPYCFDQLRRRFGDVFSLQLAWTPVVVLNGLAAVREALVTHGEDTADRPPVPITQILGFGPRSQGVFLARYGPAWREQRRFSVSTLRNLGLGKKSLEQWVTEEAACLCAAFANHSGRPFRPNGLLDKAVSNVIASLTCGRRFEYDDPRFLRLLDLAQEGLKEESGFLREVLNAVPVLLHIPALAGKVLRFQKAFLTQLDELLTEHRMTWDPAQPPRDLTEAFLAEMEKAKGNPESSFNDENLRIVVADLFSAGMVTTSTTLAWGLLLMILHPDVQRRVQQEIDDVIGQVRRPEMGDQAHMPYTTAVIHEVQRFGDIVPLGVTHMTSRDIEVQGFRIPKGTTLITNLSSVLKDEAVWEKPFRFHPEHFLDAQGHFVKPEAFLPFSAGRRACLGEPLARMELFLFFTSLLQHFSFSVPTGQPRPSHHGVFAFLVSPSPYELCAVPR

[5] = inhibitors of intracellular T. cruzi replication, confirmation, NIH3T3 host cells, beta-gal luminescence (AID 2044); type: functional, cell-based;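 further: intracellular parasites grown in NIH/3T3 mouse fibroblasts as host cells; luminescent beta-galactosidase reporter signal from transgenic T. cruzi replicating inside host cells; inhibitors lower the luminescence signal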
[6] = cytotoxicity toward NIH3T3 fibroblasts, dose response, counter-screen, cell-based, ATP luminescence, mouse fibroblasts (AID 2010); type: functional; settings: NIH3T3;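 further: cells exposed to compound for about 90 hours before reading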
[7] = biological target: T1, Heat shock factor protein 1 (Mus musculus, UniProt P38532); test: HSF1 potentiators in luciferase reporter cells, confirmation, cell-based, NIH3T3, luminescence, dose retest (AID 435004); type: functional;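 further: stress induced by proteasome inhibitor MG132 added 30 min after compound; luciferase reporter driven by HSF1 response element in NIH3T3 cells; actives raise luminescence as potentiators of the MG132 stress response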
T1 sequence (P38532 whole entry): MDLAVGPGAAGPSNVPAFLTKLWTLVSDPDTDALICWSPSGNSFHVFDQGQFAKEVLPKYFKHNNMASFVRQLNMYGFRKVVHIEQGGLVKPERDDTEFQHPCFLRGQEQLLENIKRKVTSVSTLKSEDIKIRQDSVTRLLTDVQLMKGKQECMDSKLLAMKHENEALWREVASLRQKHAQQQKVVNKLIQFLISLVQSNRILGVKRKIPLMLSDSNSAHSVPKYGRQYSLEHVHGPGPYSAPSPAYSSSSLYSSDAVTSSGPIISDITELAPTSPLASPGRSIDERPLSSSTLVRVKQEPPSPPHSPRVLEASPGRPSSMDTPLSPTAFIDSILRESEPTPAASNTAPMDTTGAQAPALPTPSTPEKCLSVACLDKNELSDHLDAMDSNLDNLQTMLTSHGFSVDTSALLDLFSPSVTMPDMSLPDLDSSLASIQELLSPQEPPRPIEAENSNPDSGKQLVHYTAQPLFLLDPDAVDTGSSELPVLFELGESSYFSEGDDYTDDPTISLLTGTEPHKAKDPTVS

[8] = HEp-2 cell cytotoxicity, dose response, cytotoxicity control for RSV inhibitor project, HTS (AID 2410); type: functional; settings: human respiratory syncytial virus
Cytochrome P450 2C19 = Cytochrome P450 2C19 (Homo sapiens, UniProt P33261); test: Cytochrome panel assay with activity outcomes. Panel member name: p450-cyp2c19 Compounds with AC50 equal or less than 10 uM are considered active; type: functional; settings: read-out: AC50
Chain of Cytochrome P450 2C19 (P33261 whole entry): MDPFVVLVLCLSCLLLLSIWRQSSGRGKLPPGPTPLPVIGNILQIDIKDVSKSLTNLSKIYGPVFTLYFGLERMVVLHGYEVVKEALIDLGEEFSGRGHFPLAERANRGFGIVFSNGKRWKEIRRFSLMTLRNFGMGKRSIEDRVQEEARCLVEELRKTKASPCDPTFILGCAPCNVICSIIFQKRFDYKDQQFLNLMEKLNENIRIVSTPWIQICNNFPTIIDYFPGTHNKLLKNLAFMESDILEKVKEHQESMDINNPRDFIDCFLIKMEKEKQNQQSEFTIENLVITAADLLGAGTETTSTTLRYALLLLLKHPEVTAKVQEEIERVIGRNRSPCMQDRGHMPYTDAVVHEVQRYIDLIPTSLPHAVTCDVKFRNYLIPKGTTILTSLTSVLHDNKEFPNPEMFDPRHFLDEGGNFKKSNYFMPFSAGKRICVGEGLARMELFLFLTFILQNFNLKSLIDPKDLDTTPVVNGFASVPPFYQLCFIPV

Cytochrome P450 3A4 = Cytochrome P450 3A4 (Homo sapiens, UniProt P08684);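 further: CYP3A4 tested as one member of a cytochrome P450 panel screen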
Chain of Cytochrome P450 3A4 (P08684 whole entry): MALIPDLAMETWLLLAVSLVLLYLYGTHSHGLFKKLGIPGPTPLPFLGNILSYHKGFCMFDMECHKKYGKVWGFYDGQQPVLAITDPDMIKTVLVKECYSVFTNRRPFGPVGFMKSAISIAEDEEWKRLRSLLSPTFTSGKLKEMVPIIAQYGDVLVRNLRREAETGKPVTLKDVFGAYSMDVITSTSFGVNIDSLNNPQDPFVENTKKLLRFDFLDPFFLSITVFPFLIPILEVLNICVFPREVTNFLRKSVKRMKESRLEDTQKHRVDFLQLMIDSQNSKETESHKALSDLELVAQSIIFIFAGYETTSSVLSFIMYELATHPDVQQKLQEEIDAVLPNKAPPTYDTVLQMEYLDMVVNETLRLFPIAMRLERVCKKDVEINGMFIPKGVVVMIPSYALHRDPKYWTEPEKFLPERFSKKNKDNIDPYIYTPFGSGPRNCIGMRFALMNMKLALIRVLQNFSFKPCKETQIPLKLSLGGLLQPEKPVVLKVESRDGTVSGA

[9] = biological target: T1, Heat shock factor protein 1; test: inhibition of MG132-induced HSE-luciferase signal, confirmation, cell-based, NIH3T3, luminescence, dose retest (AID 2382); type: functional;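 further: NIH3T3 fibroblasts with HSF1-driven luciferase reporter stressed by proteasome inhibitor MG132; luminescence from HSF1-driven luciferase expression after 8 hours of MG132 stress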
[10] = inhibitors of firefly luciferase expression or activity, dose response, H4 neuroglioma cells, luminescence (AID 1990); type: functional, cell-based
[11] = Luminescence Cell-Based Dose Response HTS to Identify Inhibitors of 5'UTR Stem-Loop Driven Prion Protein mRNA Translation in H4 Neuroglioblastoma Cells. [Related pubchem assays: 1827 (Project Summary), 1813 (Primary HTS)]; type: functional
[12] = inhibitors of SNCA 5'UTR-driven reporter translation, confirmation, H4 neuroglioma cells, luminescence (AID 1988); type: functional, cell-based

Nc1ccc(CCc2nc3ccccc3o2)cc1
AC50 [1]: 1.16 µM (active)

[O-][n+]1onc2c1CCc1nnccc1-2
EC50 [2]: 11.4 µM (active) | EC50 [3]: 8.72 µM (active) | EC50 (H4): > 120 µM (not active)

Cn1c(-c2ccsc2)c(-c2cccs2)c2cc(-c3ccc4[nH]ccc4c3)ccc21
AC50 [4]: 9.76 µM (active)

COc1cc(NC(=S)NC(=O)c2c(OC)cccc2OC)ccc1NC(=O)c1cccs1
AC50 (Cytochrome P450 2C9): 1.41 µM (inconclusive)

Cc1nc([N+](=O)[O-])c(N2CCN(C)CC2)n1Cc1ccccc1
AC50 (Cytochrome P450 2D6): 35.5 µM (inconclusive) | AC50 (Cytochrome P450 2C9): 39.8 µM (inconclusive)

N#C/C(=C/c1ccc(N2CCCCC2)o1)c1cccc(F)c1
EC50 [2]: 0.141 µM (active) | EC50 [3]: 0.355 µM (active) | EC50 (H4): 16.5 µM (active) | EC50 [5]: 3.55 µM (active) | EC50 [6]: > 60 µM (not active)

O=C(Nc1ccc(S(=O)(=O)N2CCCCC2)cc1)C1CCN(C(=O)c2ccco2)CC1
EC50 [7]: > 260 µM (inactive)

CCN(CC)CCN1C(=O)C(O)=C(C(=O)c2ccc(OC(C)C)cc2)C1c1cccs1 (stereo not given)
EC50 [2]: 15.7 µM (active) | EC50 [3]: 20.1 µM (active) | EC50 (H4): 35 µM (active)

O=C(O)c1ccc(N/N=C/c2cn(-c3ccccc3)nc2-c2cccs2)cc1
AC50 [1]: 3.74 µM (active)

Cc1cc2oc(C(=O)Nc3c(C)n(C)n(-c4ccccc4)c3=O)c(C)c2cc1C
EC50 [2]: 46.1 µM (active) | EC50 [3]: > 120 µM (not active) | EC50 (H4): > 120 µM (not active)

COc1ccc(SCC2CN(C)CCC2c2ccc(F)cc2)cc1 (stereo not given)
EC50 [7]: > 260 µM (inactive)

CCN(CC(=O)Nc1cccc(OC)c1)CC(=O)Nc1ccc(Br)c(C)c1
EC50 [7]: 61.1 µM (active)

COc1ccc(Nc2cccc(Cl)c2)c(C(=O)O)c1
CC50 [8]: 25.3 µM (active) | AC50 [1]: 2.02 µM (active)

COc1cc(Cl)c(C)cc1NC(=O)CNC(=O)Cn1cnc2ccccc2c1=O
AC50 (Cytochrome P450 2C9): 10 µM (inconclusive)

COc1ccc(OC)c(-c2csc(NC(=O)C3=NN(c4ccccc4)C(=O)CC3)n2)c1
EC50 [2]: > 120 µM (not active) | EC50 [3]: > 120 µM (not active) | EC50 (H4): > 120 µM (not active)

COc1cc2c(cc1OC)CN(c1ccc([N+](=O)[O-])cc1C#N)CC2
AC50 [1]: > 100 µM (inactive)

COn1c(SC(C)C)nc2ccccc2c1=O
AC50 (Cytochrome P450 2C9): 17.8 µM (inconclusive)

Cc1ccccc1N(CC(=O)NC1CCCC1)C(=O)c1csnn1
EC50 [2]: > 120 µM (not active) | EC50 [3]: > 120 µM (not active) | EC50 (H4): > 120 µM (not active)

COc1ccc(N2CCN(CC(=O)Nc3ccc(C)cc3)CC2)cc1
AC50 [1]: 3 µM (active)

CCCNC(=O)Nc1ccc(C)cc1C
EC50 [7]: > 260 µM (inactive)

O=C(CCCc1ccccc1)Nc1ccc2c(c1)OCCO2
EC50 [7]: 32.2 µM (active)

N#Cc1cc(Cl)c(NCC2CCCO2)cc1C#N (stereo not given)
CC50 [8]: 20.9 µM (active) | EC50 [7]: > 260 µM (inactive)

Cc1ccccc1Nc1nnc(C)c(O)n1
EC50 [7]: > 260 µM (inactive)

CCOC(=O)c1cc2c(=O)n3ccccc3nc2n(CCOC)/c1=N\C(=O)C(C)(C)C
AC50 (Cytochrome P450 2C19): 20 µM (inconclusive) | AC50 (Cytochrome P450 3A4): 31.6 µM (inconclusive) | AC50 (Cytochrome P450 2C9): 17.8 µM (inconclusive)

CCN(CC)S(=O)(=O)c1cccc(C(=O)OCC(=O)N2CC(=O)Nc3ccccc32)c1
EC50 [7]: > 260 µM (inactive)

Cc1ccc(N/C([S-])=C(/C(=O)c2ccc(C)c([N+](=O)[O-])c2)[n+]2ccccc2)cc1C
EC50 [2]: 2.37 µM (active) | EC50 [3]: 16.1 µM (active) | EC50 (H4): 46.6 µM (active) | AC50 (Cytochrome P450 2D6): 25.1 µM (inconclusive) | AC50 (Cytochrome P450 3A4): 11.2 µM (inconclusive)

N#Cc1c(NC(=O)CSc2nnc(-c3ccccc3)o2)sc2c1CCCC2
EC50 [7]: > 260 µM (inactive)

COc1cc(OC)c2ccc(=O)oc2c1C(CCN1CCCC1)c1ccc(N(C)C)cc1 (stereo not given)
AC50 [1]: 3.33 µM (active)

c1ccc(-c2nnsc2Sc2ccccn2)cc1
EC50 [2]: 18.3 µM (active) | EC50 [3]: 11.7 µM (active) | EC50 (H4): 16.3 µM (active)

N#Cc1cccn1-c1nccs1
EC50 [9]: > 195 µM (not active)

O=C(Nc1ccccc1)OCCOc1ccccc1
EC50 [3]: 30.2 µM (active) | EC50 (H4): 93.6 µM (active) | EC50 [9]: > 195 µM (not active)

COc1ccccc1-c1nnc(S)n1Cc1ccccc1
AC50 [1]: 3.09 µM (active)

CC(=O)/C(=N/Nc1ccc(Br)cc1)N1CCCc2ccccc21
CC50 [8]: 12.8 µM (active) | EC50 [10]: > 120 µM (not active) | EC50 [11]: > 120 µM (not active) | EC50 [12]: 14.5 µM (active) | EC50 [7]: 113 µM (active)

O=C(N1CCOCC1)C12CCC3CC(CC(C3)C1)C2
EC50 [9]: > 195 µM (not active)

C=CCN1/C(=N/C(=O)CC)SC2CS(=O)(=O)CC21 (stereo not given)
AC50 (Cytochrome P450 2C9): 11.2 µM (inconclusive)

COc1ccc(CSC2=NCCN2)cc1Cl
AC50 [1]: 0.021 µM (active)

CCN1CC(CN(C)Cc2nc(COc3ccccc3)no2)CC1=O (stereo not given)
EC50 [7]: > 260 µM (inactive)

COc1cc(NC(=O)Nc2cccc(C(C)=O)c2)cc(OC)c1OC
AC50 [1]: 1.72 µM (active)

COc1ccc(C)cc1-n1c(SCC(=O)Nc2cccc(C(=O)O)c2)nc2ccccc2c1=O
EC50 [7]: > 260 µM (inactive)

Sc1nnc(Cc2noc3ccccc23)n1-c1ccccc1
AC50 [1]: 5.61 µM (active)

CCc1ccccc1NS(=O)(=O)c1cc2c3c(c1)CCN3C(=O)CC2
EC50 [7]: > 260 µM (inactive)

CSc1nccn1C(=O)c1ccccc1[N+](=O)[O-]
EC50 [9]: > 195 µM (not active)

CC(C)C[C@H]1C(=O)N2CCC[C@@H]2[C@]2(O)O[C@](NC(=O)[C@H]3C=C4c5cccc6[nH]c(Br)c(c56)C[C@H]4N(C)C3)(C(C)C)C(=O)N12
AC50 (Cytochrome P450 2C9): 12.6 µM (inconclusive) and 15.8 µM (inconclusive)

CCCCOc1ccc(S(=O)(=O)N2CCN(c3ccc(N4CCN(CC)CC4)nn3)CC2)cc1
AC50 [4]: < 0.16 µM (active)

COc1ccc(OC)c(CNc2ccc3c(c2)nc(C)n3C)c1
AC50 [1]: 5.53 µM (active)

CCCCN(CCCNc1[nH]cnc2ncnc1-2)c1ccccc1
AC50 [1]: 0.108 µM (active)

O=C(Nc1cnn(C23CC4CC(CC(C4)C2)C3)c1)c1cc(-c2ccccc2)on1
EC50 [5]: 1.55 µM (active) | EC50 [6]: > 60 µM (not active) | AC50 [4]: 0.296 µM (active)

O=C(Cn1cnc2c(cnn2-c2ccccc2)c1=O)NCc1ccccc1
EC50 [2]: 8.08 µM (active) | EC50 [3]: 9.72 µM (active) | EC50 (H4): 89.8 µM (active)

Cc1ccc(C(=O)CSc2cnc3ccccc3n2)cc1C
EC50 [9]: 4.3 µM (active)

COc1ccc(C2C=C(C)Nc3ncnn32)cc1 (stereo not given)
EC50 [2]: 19.2 µM (active) | EC50 [3]: 50.5 µM (active) | EC50 (H4): > 120 µM (not active)

N#CCCn1c(=O)c(-c2cc(F)cc(F)c2)nc2cnc(Oc3cccc(Cl)c3)nc21
AC50 (Cytochrome P450 3A4): 10 µM (inconclusive) | AC50 (Cytochrome P450 2C9): 7.94 µM (inconclusive)

CCOc1ccc(S(=O)(=O)N2CCN=C2c2ccccc2)cc1
AC50 [4]: 3.19 µM (active)
